Source: patent US5149778A, “Cyclic peptides for treating herpes infections” (Bio-Mega, Inc., priority 1989, dated 1992)
pIC50: −log10 of the molar value. Where a SMILES comes first, the peptide text is derived from it. Bridges are numbered along the chain shown (N, C = ends). [ ]: non-standard residue; d: D form. NMeV = CN[C@H](C(=O)O)C(C)C

target: T1, HSV-1 ribonucleotide reductase (Human herpesvirus 1, UniProt P08543); assay: Inhibition of Herpes Simplex Virus (HSV, type 1) ribonucleotide reductase; assay type: biochemical; settings: partially purified enzyme from BHK-21/C13 cells infected with strain F HSV-1; relative to control without peptide; mean of four assays; read-out: IC50 (concentration of the peptide producing 50% of the maximal inhibition of enzyme activity)
T1 construct: obtained from quiescent BHK-21/C13 cells infected with strain F HSV-1 virus; endogenous in cells; host or cells: quiescent BHK-21/C13 cells infected with HSV-1 strain F (10 pfu/cell); partially purified viral enzyme
T1 sequence (P08543 whole entry): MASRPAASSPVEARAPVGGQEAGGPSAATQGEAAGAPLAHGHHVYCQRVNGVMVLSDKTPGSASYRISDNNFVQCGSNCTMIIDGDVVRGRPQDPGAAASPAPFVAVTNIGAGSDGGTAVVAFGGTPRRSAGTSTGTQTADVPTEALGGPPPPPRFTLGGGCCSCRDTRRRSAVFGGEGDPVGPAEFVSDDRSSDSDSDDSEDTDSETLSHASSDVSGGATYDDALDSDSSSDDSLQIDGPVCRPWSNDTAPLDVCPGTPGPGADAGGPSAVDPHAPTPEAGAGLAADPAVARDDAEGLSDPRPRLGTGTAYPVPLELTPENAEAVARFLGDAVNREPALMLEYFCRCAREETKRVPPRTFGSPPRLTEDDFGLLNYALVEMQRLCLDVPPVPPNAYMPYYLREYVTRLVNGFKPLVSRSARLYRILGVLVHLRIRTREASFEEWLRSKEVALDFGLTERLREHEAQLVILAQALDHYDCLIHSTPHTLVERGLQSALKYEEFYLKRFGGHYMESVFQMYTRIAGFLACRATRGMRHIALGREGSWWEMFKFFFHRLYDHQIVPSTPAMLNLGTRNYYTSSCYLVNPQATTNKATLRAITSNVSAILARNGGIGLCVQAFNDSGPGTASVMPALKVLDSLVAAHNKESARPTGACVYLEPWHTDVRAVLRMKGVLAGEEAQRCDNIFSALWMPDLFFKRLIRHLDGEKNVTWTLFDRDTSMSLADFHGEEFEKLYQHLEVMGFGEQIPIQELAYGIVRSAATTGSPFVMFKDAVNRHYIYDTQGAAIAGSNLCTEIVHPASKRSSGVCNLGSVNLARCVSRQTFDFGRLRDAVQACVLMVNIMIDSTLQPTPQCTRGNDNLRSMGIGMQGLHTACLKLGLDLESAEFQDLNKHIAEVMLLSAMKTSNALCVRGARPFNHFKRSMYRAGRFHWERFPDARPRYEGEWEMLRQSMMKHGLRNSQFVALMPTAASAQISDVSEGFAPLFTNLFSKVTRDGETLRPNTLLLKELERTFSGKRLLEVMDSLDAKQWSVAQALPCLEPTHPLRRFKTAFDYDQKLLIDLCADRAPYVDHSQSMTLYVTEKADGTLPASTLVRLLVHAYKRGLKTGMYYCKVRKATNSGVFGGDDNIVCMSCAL
Excerpt: Inhibition of Herpes Simplex Virus (HSV, type 1) Ribonucleotide Reductase
HSV-1 ribonucleotide reductase (partially purified) was obtained from quiescent BHK-21/C13 cells infected with strain F HSV-1 virus at 10 plaque forming units/cell as described by E. A. Cohen et al., J. Gen. Virol., 66, 733 (1985).
The procedure described by P. Gaudreau et al., J. Biol, Chem., 262, 12413 (1987) was employed. The assay result for each peptide is expressed as the concentration of the peptide producing 50% of the maximal inhibition (IC50) of enzyme activity. The number of units of the enzyme preparation used in each assay was constant, based on the specific activity of the enzyme preparation. The results are relative to the activity obtained in control experiments without peptide and represent the mean of four assays that varied less than 10% with each other.

Structure (SMILES) | pIC50
CC[C@H](C)[C@@H]1NC(=O)[C@H](C(C)C)NC(=O)[C@H]([C@@H](C)O)NC(=O)CNC(=O)[C@H](C)NC(=O)[C@H](Cc2ccc(O)cc2)NC(=O)C[C@@H](C(=O)N[C@@H](CC(=O)O)C(=O)N[C@@H](CC(C)C)C(=O)O)NC1=O [example 3] (YAGTVIDDL-OH; lactam N-7) | 4.80
CC[C@H](C)[C@@H]1NC(=O)[C@H](C(C)C)N(C)C(=O)[C@H](Cc2ccc(O)cc2)NC(=O)C[C@@H](C(=O)N[C@@H](CC(=O)O)C(=O)N[C@@H](CC(C)C)C(=O)O)NC1=O [example 2] (Y[NMeV]IDDL-OH; lactam N-4) | 3.85
CC[C@H](C)[C@@H]1NC(=O)[C@H](C(C)C)NC(=O)[C@H](Cc2ccc(O)cc2)NC(=O)C[C@@H](C(=O)N[C@@H](CC(=O)O)C(=O)N[C@@H](CC(C)C)C(=O)O)NC1=O [example 1] (YVIDDL-OH; lactam N-4) | 4.84
